In paper PMC3090394 (2011) one finds Ka, binding and binding constant data, which are given here for six molecules.

Experiment [1] concerns oligo I, d-(GGGATATATCCC)2, AT-rich oligonucleotide (DNA, duplex) GGGATATATCCC
The experiment in a line: ITC. The note with it: Na+ 100 mM (NaCl), 10 mM HEPES, pH 7.0, 25°C; for Ka: apparent, (K1K2)^1/2 of two binding events; for binding: 1000 µM ligand titrated into 10 µM DNA, nd.

For experiment [2], the system named is oligo II, d-(GGGCGGCCGCCC)2, GC-rich oligonucleotide (DNA, duplex) GGGCGGCCGCCC
Description: ITC. The note with it: Na+ 100 mM (NaCl), 10 mM HEPES, pH 7.0, 25°C; for binding: 1000 µM ligand titrated into 10 µM DNA, nd.

Consider `Cn1cc(NC(=O)c2cc(NC(=O)c3cccn3C)cn2C)cc1C(=O)NCCCn1cc(CN2CCCNCCNCCCNCC2)nn1`, for which the Ka in experiment [1] is on record as 2.7±0.3 ×10^5 M^−1. In addition, the binding entry in experiment [2] is “no”.

Take `Cn1cc(NC(=O)c2cc(NC(=O)c3cccn3C)cn2C)cc1C(=O)NCCCn1cc(CN2CCCNCCNCCCNCC2)nn1.[Cu+2]`: in experiment [1], the Ka is listed as 1.2±0.2 ×10^5 M^−1. Besides, in experiment [2], the binding result is on record as “no”.

For `Cn1cc(NC(=O)c2cccn2C)cc1C(=O)NCCCn1cc(CN2CCCNCCNCCCNCC2)nn1`, the binding result in experiment [1] and in experiment [2] was “no” each time.

`CC[n+]1c(-c2ccccc2)c2cc(N)ccc2c2ccc(N)cc21`: the binding constant in experiment [1] (control titration) and in experiment [2] (control titration) was ~ 0.7×10^5 M^−1 each time.

`Cn1cc(NC(=O)c2cc(NC(=O)c3cccn3C)cn2C)cc1C(=O)NCCCn1cc(CN2CCCNCCNCCCNCC2)nn1.[Zn+2]`: the Ka in experiment [1] is given as 1.5±0.3 ×10^5 M^−1. In addition, the binding entry in experiment [2] is on record as “no”.

For the molecule `Cn1cccc1C(=O)NCCCn1cc(CN2CCCNCCNCCCNCC2)nn1`, the binding result in experiment [1] and in experiment [2] was “no” in each case.
